Assay: gradient 5% acetonitrile 3 min, to 50% in 2 min, to 85% in 15 min, held 3 min, 100 µL/min
Settings: column: Zorbax Extend-C18 2.1 x 50 mm; eluents: water / acetonitrile, 0.1% formic acid
How it was run: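 Over 3 months, pure standards in mixtures of ~100 molecules were run by HPLC coupled to a quadrupole time-of-flight mass spectrometer in positive and negative ionization mode. The column was a Zorbax Extend-C18 (2.1 × 50 mm, 1.8 μm) at 100 μL/min, eluted with water and acetonitrile each holding 0.1% formic acid, with 40 μL dead and 900 μL dwell volumes. Retention time was determined from adduct peaks chosen by software and checked manually.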

Row | Structure (SMILES) | RP-LC retention time [s]
1 | COc1ccc(-c2nc(-c3ccc4nncn4c3)no2)c(OC)c1 | 800
2 | CCOc1ccc(C(=O)N2CCc3nc(-c4ccc(OC)cc4)ncc3C2)cc1 | 962
3 | COc1cccc2c1OC1(C)CC2C(S(=O)(=O)c2ccc(C(C)C)cc2)C(=O)N1 (centres undefined) | 938
4 | CCc1nc2cc(N3CCC(C(=O)NC(C)c4cccnc4)CC3)cnc2nc1CC (centres undefined) | 596
5 | CCOc1ccc(CN2C[C@@H](CO)[C@H](c3ccncc3)C2)cc1OCC | 556
6 | CCc1nc(-c2ccc(OC3CCN(CCc4ccccc4)C3)cc2)no1 (centres undefined) | 744
7 | CC1=C(c2ccccc2)S(=O)(=O)N=C1N1CCCN(C(=O)c2cc(C)ccc2C)CC1 | 870
8 | c1ccc(CSc2ccc(-c3ccc4c(c3)OCO4)nn2)nc1 | 617
9 | CN1CCN(c2ccc(-c3ccc(NC(=O)Nc4cccc(Cl)c4)cc3)nn2)CC1 | 588
10 | O=C(NC1CCCC1)c1ccc(-c2cccs2)nc1 | 849
11 | CC1CCN(c2nc(=O)n(CC(=O)Nc3ccc(C(C)C)cc3)c3ccccc23)CC1 | 981
12 | O=C(NCC1CN(c2ccc3c(c2)OCO3)C(=O)O1)Nc1ccccc1C(F)(F)F (centres undefined) | 768
13 | O=C(CC1CCCCC1)NC1CCCN(c2ccc(=O)n(CC3CC3)n2)C1 (centres undefined) | 836
14 | Cc1[nH]c(=O)[nH]c(=O)c1CCc1nnc(SCC(=O)NCc2ccco2)o1 | 566
15 | CCn1c(C(=O)NCCCN2CCCCC2)c(N2CCCC2=O)c2cc(F)ccc21 | 647
16 | CCn1nc(CNC(=O)CSc2ccncc2)c2ccccc21 | 598
17 | O=C1CCCCC1Oc1cc(O)c2c(=O)cc(-c3ccccc3)oc2c1 (centres undefined) | 1090
18 | COC1CCC12CCN(C(=O)CNC(C)=O)CC2 (centres undefined) | 607
19 | CCN(c1cccc(C)c1)S(=O)(=O)c1cc2n(c1)CCCN(C)C2=O | 783
20 | Cc1ccc(-c2nc(C(=O)N(C)C)c3n2CCCCC3)cc1 | 640
21 | O=C(Nc1ccc2c(c1)C(=O)Nc1ccccc1O2)NC1CCCCC1 | 776
22 | O=c1ccc(S(=O)(=O)N2CCOCC2)cn1Cc1ccc(Cl)cc1 | 814
23 | Cc1[nH]c(C(=O)N2CCCC(C(=O)NCCN3CCOCC3)C2)c(C)c1C(=O)OC(C)C (centres undefined) | 607

Row | Structure (SMILES) | RP-LC retention time [s]
24 | O=C(Cn1nc2c(N3CCCCCC3)nccn2c1=O)Nc1ccc(Cl)cc1F | 786
25 | CCCc1nc(-c2ccccc2)oc1CC(=O)Nc1ccc(Br)cc1F | 1150
26 | Cc1sc(-c2cc(C(F)(F)F)on2)cc1S(=O)(=O)Nc1cccc(Cl)c1C | 1240
27 | O=C(Nc1ccc(-c2nc3ccccc3[nH]2)cc1)c1ccccc1[N+](=O)[O-] | 574
28 | COCC1CN(C2CCC2)CC12CCN(C(=O)C(C)C)CC2 (centres undefined) | 584
29 | Cc1cc(S(=O)(=O)N2C[C@@H](F)C[C@H]2C(=O)N2CCCCC2)ccc1Cl | 885
30 | Cc1ccnc(N2CCC(C(=O)Nc3ccc(Br)cc3)CC2)n1 | 784
31 | COc1ccc(NC(=O)N2C[C@@H]3C[C@H]2C[C@@H]3NC(=O)c2ccccc2)c(OC)c1 | 647
32 | O=C(c1ccncc1)N1CCC(n2nc(-c3ccsc3)ccc2=O)CC1 | 624
33 | Cc1cccc2c(C(=O)N3CCCC3)cc(N(C)C)nc12 | 605
34 | O=C(NCc1ccc(C(F)(F)F)cc1)C1CCCN(c2nccnc2Oc2ccccc2)C1 (centres undefined) | 1040
35 | Cc1cc(C)cc(NC(=O)N(C)Cc2nc3cc(C(=O)N(C)C)ccc3n2C)c1 | 639
36 | Cc1c(CNCc2ccco2)c(C(=O)O)c(C)n1Cc1ccccc1Cl | 720
37 | O=C(NC1CCN(C(=O)c2cc(-c3cccs3)[nH]n2)CC1)C1CCCCC1 | 722
38 | CCc1c(C)nc2ncnn2c1NC(C)C | 670
39 | Cc1cccc(-c2noc(-c3ccc(N4CCN(c5ncccn5)CC4)nc3)n2)c1 | 1310
40 | CCCCNC(=O)Cn1cccc(-c2nc(-c3ccc(F)cc3)no2)c1=O | 790
41 | O=C(NC1CCN(c2cc(N3CCCC3)cnn2)C1)C1CC1 (centres undefined) | 578
42 | CC(C)OCCCNC(=O)c1cc2n(n1)CCCN(Cc1ccc(Cl)cc1)C2=O | 855
43 | Cc1ccc(N2CC(c3nc(-c4ccc5c(c4)nc(C)c(=O)n5C)no3)CC2=O)cc1 (centres undefined) | 837
44 | O=C(N[C@H]1C[C@@H]2C[C@H]1N(C(=O)c1ccccn1)C2)c1ccccc1 | 622
45 | Cc1ccc(NC(=O)C2CCCN(S(=O)(=O)c3c[nH]c(C(=O)N4CCCC4)c3)C2)c(C)c1 (centres undefined) | 814
46 | CC1CCN(S(=O)(=O)N2CCC(C(=O)N3CCC(Cc4nncn4C(C)C)CC3)CC2)CC1 | 720

Row | Structure (SMILES) | RP-LC retention time [s]
47 | CCn1c(=O)c(C)nc2cc(-c3noc(-c4ccc(F)c(F)c4)n3)ccc21 | 1150
48 | COC(=O)c1ccccc1Nc1c(-c2ccc(N3CCOCC3)cc2)nc2cnccn12 | 874
49 | O=C(CCc1c(-c2ccc(Br)cc2)nc2ccccn12)NCCC1=CCCCC1 | 753
50 | CCOc1ccccc1NC(=O)N1CCCC1c1nc(-c2ccc(OC)cc2)no1 (centres undefined) | 1100
51 | CCNC(=O)N1CC(n2cc(C(=O)NCCCOC)nn2)C1 | 580
52 | CCNC(=O)N1CCC(OC(C)=O)CC1 | 586
53 | CCn1c(=O)n(CC(=O)N2CCN(c3ccccn3)CC2)c(=O)c2cnc(-c3ccccc3)nc21 | 697
54 | Fc1ccc(-c2nnc(Cc3nc(-c4ccc5c(c4)OCO5)no3)o2)cc1 | 957
55 | CCc1cccc(NC(=O)C2CCN(C(=O)c3ncn4c3COC(c3ccccc3)C4)CC2)c1 (centres undefined) | 879
56 | CCN(CC)S(=O)(=O)c1ccc2c(c1)c(=O)c(C(=O)N1CCN(c3ccccn3)CC1)cn2C | 588
57 | CCCNC(=O)C1CCN(c2ccc(SCC(=O)NCCc3ccc(Cl)cc3)nn2)CC1 | 663
58 | CCOC(=O)c1nc(NCCc2ccccc2Cl)c2c(C)noc2n1 | 904
59 | O=C(NCc1ccccc1C(F)(F)F)C1CCN(c2cnc3nccnc3c2)CC1 | 747
60 | Cc1cc(C(=O)N2c3ccccc3CC2c2nnc(C(C)C)o2)nn1C (centres undefined) | 829
61 | CCN1C(=O)C2CCCN2C(=O)c2ccccc21 (centres undefined) | 639
62 | COc1cccc(NC(=O)NC2CCN(c3cc(C)cc(C)c3)C2=O)c1 (centres undefined) | 870
63 | COc1ccc2nc(-n3nc(C)cc3NC(=O)c3ccc([N+](=O)[O-])o3)sc2c1 | 1220
64 | CC(C)(C)C(O)CCNC(=O)C1(c2ccc(F)cc2)CC1 (centres undefined) | 823
65 | COc1cccc(CNC(=O)NCCC2CCN(S(=O)(=O)c3ccccc3)CC2)c1 | 821
66 | O=c1n(Cc2nc(-c3ccc(F)c(Br)c3)no2)nc2ccc(-c3ccccc3)nn12 | 1010
67 | O=C(CSc1ccc(N2CCCC(C(=O)NC3CC3)C2)nn1)Nc1ccc(C(F)(F)F)cc1 (centres undefined) | 729
68 | CCN1C(=O)c2cccnc2Sc2cc(CNC(=O)c3ccc(C#N)cc3)ccc21 | 756
69 | COc1ccc(Cl)cc1C(=O)Nc1ccc2c(c1)CN(C(=O)c1cccs1)CC2 | 958

Row | Structure (SMILES) | RP-LC retention time [s]
70 | Cn1cc(-c2cc3n(n2)CCCN3C(=O)CCC(=O)N2CCCCCC2)c2ccccc21 | 837
71 | O=C(NC1CCCCC1)c1ccc2ccnc(N3CCN(c4ccc(F)cc4)CC3)c2c1 | 908
72 | Cc1nc(-c2cc3ccccc3nc2N2CCN(C(=O)c3cccs3)CC2)no1 | 894
73 | Cc1cc(C)n(-c2ccc(=O)n(CCNC(=O)c3cc(C)on3)n2)n1 | 640
74 | Cc1c(C(=O)N2CCN(c3ccccn3)CC2)sc2nc3n(c(=O)c12)CCC3 | 571
75 | COc1ccc(CNC(=O)Nc2c(-c3cccc(C)c3)nc3ccccn23)cc1 | 651
76 | COc1ccc(CNC(=O)c2cnc3c(c2)c(=O)n(C)c(=O)n3-c2ccc(OC)cc2)cc1 | 841
77 | C=C1CC2(OC1=O)c1ccccc1CCc1ccccc12 | 1140
78 | O=C(Nc1ccc(Br)cc1)Nc1ccc2nc3n(c(=O)c2c1)CCCC3 | 740
79 | CCc1cc(C(=O)Nc2cccc(C)c2C)nc2ccnn12 | 1150
80 | Cc1ccc(N2N=C(C(=O)N3CCN(CC(C)C)CC3)S(=O)(=O)c3cccnc32)cc1 | 674
81 | Cn1c(=O)oc2cc(-c3noc(CNC(=O)Cc4ccc(Cl)cc4)n3)ccc21 | 807
82 | CC(=O)SCC(Cc1ccccc1)C(=O)NCC(=O)OCc1ccccc1 (centres undefined) | 1080
83 | COc1ccc(CN2CCc3nc(N4CCN(c5ccccn5)CC4)ncc3C2)c(OC)c1OC | 555
84 | O=C(Cc1ccccc1Br)N1CCN(Cc2nncn2C2CCCCC2)CC1 | 642
85 | CCOc1ccc(-c2noc(CN3N=NC4C(=O)N(c5cccc(F)c5)C(=O)C43)n2)cc1OC (centres undefined) | 926
86 | Cc1ncsc1CN1CCn2c(nnc2[C@@H]2C[C@@H](O)CN2Cc2cccnc2)C1 | 544
87 | O=C(NCCN1CCCC1)c1cccc(-c2ccc(N3CCCCCC3)nc2)c1 | 574
88 | CCCN1C(=O)c2cccnc2Sc2cc(C(=O)N3CCCC3)ccc21 | 720
89 | O=C(Cn1cccc(-c2nc(-c3ccc(Br)cc3)no2)c1=O)NC1CCCC1 | 896

From the METLIN SMRT retention time set (Domingo-Almenara et al. 2019)
